Key:
[1] = target: T1, Prothrombin (Homo sapiens, UniProt P00734); test: Concentration required for 50 percent inhibition of Prothrombin
[2] = target: T1, Prothrombin; test: The compound was evaluated for binding affinity against Prothrombin

Row | Compound | IC50 [1] | Ki [2]
1 | NCc1ccc(CNC(=O)[C@@H]2CC[C@H]3[C@@H](OCc4ccccc4)C[C@H](O)C(=O)N23)cc1 | 12.6 µM | –
2 | C[C@]1(O)CC[C@@H]2CC[C@@H](C(=O)NCc3ccc(C(=N)N)cc3)N2C1=O | 0.251 µM | 125 nM
3 | N=C(N)c1ccc(CNC(=O)[C@@H]2CC[C@H]3CC[C@@](O)(Cc4ccccc4)C(=O)N32)cc1 | 0.02 µM | 9 nM
4 | CO[C@H]1C[C@@](O)(Cc2ccccc2)C(=O)N2[C@H](C(=O)NCc3ccc(C(=N)N)cc3)CC[C@@H]12 | 0.251 µM | 125 nM

Continued, values first:

Row | IC50 [1] | Ki [2] | Compound
5 | 12.6 µM | – | NCc1ccc(CNC(=O)[C@@H]2CC[C@H]3[C@@H](OCc4ccccc4)CCC(=O)N23)cc1
6 | 12.6 µM | – | O=C(NCC1CCNCC1)[C@@H]1CC[C@H]2[C@@H](OCc3ccccc3)C[C@H](O)C(=O)N12
7 | 12.6 µM | – | O=C(NCC1CCNCC1)[C@@H]1CC[C@H]2[C@@H](OCc3ccccc3)CCC(=O)N12
